{"source": "patent US12691109B2", "about": "“Bifunctional aggregation-induced emission luminogen for monitoring and killing of multidrug-resistant bacteria” (The Hong Kong University of Science and Technology, priority 2018, dated 2026)", "key": {"[1]": {"tested_on": "MDR S. epidermidis-infected wounds", "assay": "Bacteria-infected full-thickness skin wound model on rats", "format": "in vivo, Wistar rats", "from_the_text": "(§1) FIGS. 26A-D show In vivo evaluation of TriPE-NT in treatment of bacteria-infected wounds on rats. FIG. 26A illustrates the process of establishing bacteria-infected full-thickness skin wound models on rats. […] FIG. 26C is a graph plotting the proportion of the E. coli and MDR E. coli infected wound area on day 3 and day 7 after the injury. FIG. 26D is a graph plotting the proportion of the S. epidermidis and MDR S. epidermidis infected wound area on day 3 and day 7 after the injury (each experiment was repeated at least 5 times).\n(§2) To further evaluate the anti-bacterial activity of TriPE-NT in vivo, the performance of TriPE-NT on bacteria-infected wounds of rats was tested. E. coli-, MDR E. coli-, S. epidermidis or MDR S. epidermidis-infected, full-thickness skin wounds were established on the dorsal skin of the Wistar rats (FIG. 26A). The macroscopic appearance of the healing processes of the wounds was captured at different time points (FIG. 26B).\n(§3) Hematoxylin and eosin (HE) staining was carried out for evaluating the wound healing of the sectioned tissues of the E. coli-, MDR E. coli-, S. epidermidis- and MDR S. epidermidis-infected wounds on the Wistar rats on day 3 and day 7 post-injury (FIG. 28). […] Fibroblasts can secret collagens which accelerate wound reconstruction, that means the TriPE-NT plus light irradiation can promote the wound healing."}, "E. coli-infected wounds": {"tested_on": "E. coli-infected wounds", "assay": "Bacteria-infected full-thickness skin wound model on rats", "format": "in vivo, Wistar rats", "from_the_text": "as §1, §2, §3"}, "[2]": {"tested_on": "S. epidermidis-infected wounds", "assay": "Bacteria-infected full-thickness skin wound model on rats", "format": "in vivo, Wistar rats", "from_the_text": "as §1, §2, §3"}, "[3]": {"tested_on": "MDR E. coli-infected wounds", "assay": "Bacteria-infected full-thickness skin wound model on rats", "format": "in vivo, Wistar rats", "from_the_text": "as §1, §2, §3"}, "S. aureus": {"tested_on": "S. aureus", "assay": "Bacteria staining with TriPE-NT and PI, CLSM", "format": "cell-based", "conditions": "10 min", "description": "(§4) FIG. 21B is a graph plotting stained percentages for E. coli, MDR E. coli, K. pneumoniae, MDR K. pneumoniae, S. epidermidis, MDR S. epidermidis, S. aureus, and MDR S. aureus.\n(§5) FIG. 21C is a graph plotting percentage of dead bacteria stained by propidium iodine (PI) after the bacteria were incubated with 10 μM of TriPE-NT or PI for 10 min.\n(§6) TriPE-NT: Ex=405 nm, Em=500-560 nm; PI: Ex=514, Em=600-700.\n(§7) To indicate the status of the bacteria after TriPE-NT treatment, the bacteria was incubated with commercial dead bacteria-staining fluorescent reagent propidium iodide (PI) and TriPE-NT at the same time. Thanks to the AIE characteristics and water solubility of TriPE-NT, there was almost no background fluorescence in the imaging field. E. coli and S. epidermidis, which emitted bright orange (TriPE-NT) or red (PI) fluorescence, are clearly visualized under confocal laser scanning microscope (CLSM) (FIG. 21A-C, 22-23). […] In comparison, relatively low percentage of Gram-negative bacteria were stained by TriPE-NT (e.g., 88.1±9.8% E. coli, 84.3±12.7% MDR E. coli, 47.9±7.7% K. pneumoniae and 35.8±4.9% MDR K. pneumoniae) (FIG. 21B, FIG. 22). […] By contrast, relatively low percentages of E. coli (22.1±12.2% E. coli) were co-stained by both TriPE-NT and PI (FIGS. 21A, C), which is also similar to other Gram-negative bacteria (15.3±3.7%, MDR E. coli, 8.8±3.2%, K. pneumoniae and 6.4±2.6% MDR K. pneumoniae) (FIGS. 21A & C, 22). The reason for this difference possibly is ascribed to the extra membrane of Gram-negative bacteria which is absent in Gram-positive bacteria. These observations also illustrated that both Gram-negative bacteria and Gram-positive bacteria are vulnerable to TriPE-NT treatment, the possible reason is that these bacteria with negatively charged membranes, could anchor, uptake, and aggregate the positively charged probe, which restricts the intramolecular motion of the probe and causes their fluorescence emission."}, "MDR S. aureus": {"tested_on": "MDR S. aureus", "assay": "Bacteria staining with TriPE-NT and PI, CLSM", "format": "cell-based", "conditions": "10 min", "description": "as §4, §5, §6, §7"}, "MDR S. epidermidis [4]": {"tested_on": "MDR S. epidermidis", "assay": "Bacteria staining with TriPE-NT and PI, CLSM", "format": "cell-based", "conditions": "10 min", "description": "as §4, §5, §6, §7"}, "MDR E. coli": {"tested_on": "MDR E. coli", "assay": "Morphological changes of bacteria by FE-SEM and FEHR-TEM", "format": "cell-based", "from_the_text": "(§8) FIGS. 24A-E show images of TriPE-NT-induced morphological changes of E. coli, MDR E. coli, S. epidermidis and MDR S. epidermidis with white light irradiation by FE-SEM and FEHR-TEM, bacteria without treatment were set as controls. […] FIG. 24D is a graph plotting elemental curve measured on the super-thin slices of TriPE-NT-treated E. coli from the region marked by the rectangle in FIG. 24C. FIG. 24 E is a graph plotting the elemental curve measured on the super-thin slices of TriPE-NT-treated S. epidermidis from the region marked by rectangle in FIG. 24C.\n(§9) To gain more insights into the TriPE-NT-bacteria interactions, FE-SEM and field-emission high resolution transmission electron microscope (FEHR-TEM) were used to visualize the morphological changes of the bacteria under TriPE-NT treatment, selecting E. coli (G−), MDR E. coli (G−), and S. epidermidis (G+), MDR S. epidermidis (G+) as representatives."}, "S. epidermidis [5]": {"tested_on": "S. epidermidis", "assay": "Morphological changes of bacteria by FE-SEM and FEHR-TEM", "format": "cell-based", "conditions": "TriPE-NT without or with light irradiation (4 mW cm^−2, 30 min)", "from_the_text": "as §8, §9"}, "MDR S. epidermidis [6]": {"tested_on": "MDR S. epidermidis", "assay": "Morphological changes of bacteria by FE-SEM and FEHR-TEM", "format": "cell-based", "conditions": "TriPE-NT without or with light irradiation (4 mW cm^−2, 30 min)", "from_the_text": "as §8, §9"}, "E. coli [7]": {"tested_on": "E. coli", "assay": "Morphological changes of bacteria by FE-SEM and FEHR-TEM", "format": "cell-based", "from_the_text": "as §8, §9"}, "S. epidermidis [8]": {"tested_on": "S. epidermidis", "assay": "Bacteria staining with TriPE-NT and PI, CLSM", "format": "cell-based", "conditions": "10 min", "description": "(§10) TriPE-NT: Ex, 405 nm, Em, 500-560 nm; PI: Ex, 514 nm, Em, 600-700 nm.\nas §4, §5, §7"}, "E. coli [9]": {"tested_on": "E. coli", "assay": "Bacteria staining with TriPE-NT and PI, CLSM", "format": "cell-based", "conditions": "10 min", "description": "as §10, §4, §5, §7"}, "[10]": {"conditions": "day 3 post-injury, TriPE-NT plus light vs control"}, "[11]": {"conditions": "day 3 post-injury, TriPE-NT plus light vs untreated"}, "[12]": {"conditions": "day 7 post-injury, TriPE-NT plus light (4 mW cm^−2, 30 min) vs control"}, "[13]": {"conditions": "day 7 post-injury, TriPE-NT plus light vs control"}, "[14]": {"conditions": "TriPE-NT in the absence of white light"}, "[15]": {"conditions": "TriPE-NT with light irradiation"}}, "note": "“Also recorded” adds a separate entry of the source.", "data": [{"smiles": "COc1ccc(C(=Cc2ccc(-c3ccc4c5c(cccc35)C(=O)N(CCCCn3c[n+](Cc5ccc(F)cc5F)cn3)C4=O)cc2)c2ccc(OC)cc2)cc1", "note": "[TriPE-NT]", "values": [{"measurement": "wound size, MDR S. epidermidis-infected wounds", "setting": "[1]; [10]", "result": "no apparent difference"}, {"measurement": "HE staining of wound tissue, invaded lymphocytes, MDR S. epidermidis-infected wounds", "setting": "[1]; [11]", "result": "reduced the inflammatory reactions"}, {"measurement": "wound size, MDR S. epidermidis-infected wounds", "setting": "[1]; [12]", "result": "significantly smaller sizes"}, {"measurement": "HE staining of wound tissue, MDR S. epidermidis-infected wounds", "setting": "[1]; [13]", "result": "appearance of fibroblasts and newly formed squamous epithelial layers"}, {"measurement": "wound size, E. coli-infected wounds", "setting": "E. coli-infected wounds; [10]", "result": "no apparent difference"}, {"measurement": "HE staining of wound tissue, invaded lymphocytes, E. coli-infected wounds", "setting": "E. coli-infected wounds; [11]", "result": "reduced the inflammatory reactions"}, {"measurement": "wound size, E. coli-infected wounds", "setting": "E. coli-infected wounds; [12]", "result": "more apparent reduction of wound size"}, {"measurement": "wound size, S. epidermidis-infected wounds", "setting": "[2]; [10]", "result": "no apparent difference"}, {"measurement": "HE staining of wound tissue, invaded lymphocytes, S. epidermidis-infected wounds", "setting": "[2]; [11]", "result": "reduced the inflammatory reactions"}, {"measurement": "wound size, S. epidermidis-infected wounds", "setting": "[2]; [12]", "result": "more apparent reduction of wound size"}, {"measurement": "HE staining of wound tissue, S. epidermidis-infected wounds", "setting": "[2]; [13]", "result": "appearance of fibroblasts and newly formed squamous epithelial layers; also recorded: appearance of hair follicles"}, {"measurement": "wound size, MDR E. coli-infected wounds", "setting": "[3]; [10]", "result": "no apparent difference"}, {"measurement": "HE staining of wound tissue, invaded lymphocytes, MDR E. coli-infected wounds", "setting": "[3]; [11]", "result": "reduced the inflammatory reactions"}, {"measurement": "wound size, MDR E. coli-infected wounds", "setting": "[3]; [12]", "result": "significantly smaller"}, {"measurement": "percentage of S. aureus co-stained by TriPE-NT and PI (dead bacteria)", "setting": "S. aureus; 10 μM TriPE-NT and PI", "result": "67.3±12.2", "unit": "%"}, {"measurement": "percentage of S. aureus stained by TriPE-NT", "setting": "S. aureus; 10 μM", "result": "86.1±1.9", "unit": "%"}, {"measurement": "percentage of MDR S. aureus co-stained by TriPE-NT and PI (dead bacteria)", "setting": "MDR S. aureus; 10 μM TriPE-NT and PI", "result": "57.4±1.3", "unit": "%"}, {"measurement": "percentage of MDR S. aureus stained by TriPE-NT", "setting": "MDR S. aureus; 10 μM", "result": "80.9±1.7", "unit": "%"}, {"measurement": "percentage of MDR S. epidermidis co-stained by TriPE-NT and PI (dead bacteria)", "setting": "MDR S. epidermidis [4]; 10 μM TriPE-NT and PI", "result": "74.8±11.4", "unit": "%"}, {"measurement": "percentage of MDR S. epidermidis stained by TriPE-NT", "setting": "MDR S. epidermidis [4]; 10 μM", "result": "92.9±6.6", "unit": "%"}, {"measurement": "morphology of MDR E. coli", "setting": "MDR E. coli; [14]", "result": "obvious rough surface and damaged cell wall"}, {"measurement": "morphology of MDR E. coli", "setting": "MDR E. coli; [15]", "result": "cell wall fragmentations"}, {"measurement": "morphology of S. epidermidis", "setting": "S. epidermidis [5]", "result": "wrinkled bacterial cell wall"}, {"measurement": "morphology of MDR S. epidermidis", "setting": "MDR S. epidermidis [6]", "result": "wrinkled bacterial cell wall"}, {"measurement": "morphology of E. coli", "setting": "E. coli [7]; [14]", "result": "obvious rough surface and damaged cell wall"}, {"measurement": "morphology of E. coli", "setting": "E. coli [7]; [15]", "result": "cell wall fragmentations"}, {"measurement": "percentage of S. epidermidis co-stained by TriPE-NT and PI (dead bacteria)", "setting": "S. epidermidis [8]; 10 μM TriPE-NT and PI", "result": "80.9±15.8", "unit": "%"}, {"measurement": "percentage of S. epidermidis stained by TriPE-NT", "setting": "S. epidermidis [8]; 10 μM", "result": "96.2±5.6", "unit": "%"}, {"measurement": "percentage of E. coli co-stained by TriPE-NT and PI (dead bacteria)", "setting": "E. coli [9]; 10 μM TriPE-NT and PI", "result": "22.1±12.2", "unit": "%"}, {"measurement": "percentage of E. coli stained by TriPE-NT", "setting": "E. coli [9]; 10 μM", "result": "88.1±9.8", "unit": "%"}]}]}
